This is an account of results in patent publication US6340694B1, “Diarylbenzopyran derivatives as cyclooxygenase-2 inhibitors” (Pacific Corporation, priority 1998, dated 2002).

One data set deals with T1, COX-2 (Mus musculus, UniProt Q05769).
T1 construct: endogenous in cells; host or cells: peritoneal macrophages of C57BL/6 mouse, aspirin-pretreated, LPS-induced
T1 sequence (Q05769 18-604): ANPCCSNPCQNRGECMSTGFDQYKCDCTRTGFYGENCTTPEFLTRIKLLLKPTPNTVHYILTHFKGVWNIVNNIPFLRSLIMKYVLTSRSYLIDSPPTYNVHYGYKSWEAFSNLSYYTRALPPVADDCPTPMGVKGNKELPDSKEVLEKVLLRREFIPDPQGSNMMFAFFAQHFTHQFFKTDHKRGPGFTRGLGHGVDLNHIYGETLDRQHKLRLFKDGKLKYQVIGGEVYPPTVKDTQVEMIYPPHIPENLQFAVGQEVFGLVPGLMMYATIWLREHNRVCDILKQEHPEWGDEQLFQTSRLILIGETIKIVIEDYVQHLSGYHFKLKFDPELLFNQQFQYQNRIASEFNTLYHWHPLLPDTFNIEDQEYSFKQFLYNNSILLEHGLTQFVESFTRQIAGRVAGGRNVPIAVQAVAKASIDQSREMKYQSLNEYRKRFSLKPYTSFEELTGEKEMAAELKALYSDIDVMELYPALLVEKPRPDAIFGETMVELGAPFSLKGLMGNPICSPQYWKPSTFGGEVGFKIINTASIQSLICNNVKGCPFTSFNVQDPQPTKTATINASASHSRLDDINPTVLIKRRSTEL
Nature of the data set: Evaluation of COX-2's inhibition efficacy (PGE2 radioimmuno assay, LPS-induced, aspirin-pretreated peritoneal macrophages). It counts as cell-based, C57BL/6 mouse. The note with it: for inhibition at 0.1 µg/mL: 0.1 μg/ml; for inhibition at 1 µg/mL: 1 μg/ml; for inhibition at 10 µg/mL: 10 μg/ml. The protocol: Regarding the compounds in the above Examples and indomethacin, the inhibition efficacy of COX-2 and COX-1 are being measured by the following two methods. […] Evaluation of COX-2's Inhibition Efficacy (J. Pharmacol. Exp. […] After cleaning C57BL/6 mouse's abdomen by 70% EtOH, the skin of mouse's abdomen was eliminated cautiously not to harm peritomeum and 5 ml of cold PBS was poured into the abdominal cavity and in certain times later macrophage-bleeding abdominal-liquid was collected by syringe. […] After putting 1 ml cell suspension having cell number of 1×10^6 cells/mu into each 24-well microtiter plates, macrophages were adhered to the bottom of plate by culturing in the condition of 5% CO2/95% O2, at a temperature of 37° C. for 2 hours. Other cells not being adhered to were eliminated by washing two times with PBS. The purity of macrophages obtained through this process was identified by differential counting. […] After inducing COX-2 by LPS, the cell culture medium was eliminated and macrophages was washed two times with PBS. And 1 ml of RRPI-1640 badge was added to each well again and after treating them with sample with appropriate concentration, they were cultured at a temperature of 37i É for 10 minutes. And then treated them with arachidonic acid to make their final concentration as 10 μM and cultured them additional 10 minutes, all the supernatant liquid of reaction was obtained. The amount of PGE2 produced in the supernatant liquid of reaction was determined by the PGE2 radioimmuno assay.

A further data set deals with T2, COX-1 (Mus musculus, UniProt P22437).
T2 construct: there is no pre-treatment of aspirin and LPS in the adhesion of macrophage; endogenous in cells; host or cells: peritoneal macrophages of C57BL/6 mouse, without aspirin and LPS pre-treatment
T2 sequence (P22437 27-602): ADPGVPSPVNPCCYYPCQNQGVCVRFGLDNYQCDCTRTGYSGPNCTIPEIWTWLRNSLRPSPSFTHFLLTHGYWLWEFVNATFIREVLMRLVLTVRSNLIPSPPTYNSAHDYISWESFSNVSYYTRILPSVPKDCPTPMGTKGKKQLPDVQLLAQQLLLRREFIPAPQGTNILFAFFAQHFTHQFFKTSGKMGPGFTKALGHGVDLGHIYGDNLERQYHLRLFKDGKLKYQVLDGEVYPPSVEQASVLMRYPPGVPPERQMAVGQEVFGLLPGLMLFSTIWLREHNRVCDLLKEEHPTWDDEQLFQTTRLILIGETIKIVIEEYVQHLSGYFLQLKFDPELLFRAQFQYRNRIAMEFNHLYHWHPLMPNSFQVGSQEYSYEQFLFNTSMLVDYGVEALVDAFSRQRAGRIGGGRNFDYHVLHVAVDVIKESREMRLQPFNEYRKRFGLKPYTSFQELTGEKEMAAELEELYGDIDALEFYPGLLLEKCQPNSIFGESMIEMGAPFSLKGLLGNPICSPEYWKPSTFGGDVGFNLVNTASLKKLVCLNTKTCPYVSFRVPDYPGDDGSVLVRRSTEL
The data set can be described thus: Evaluation of COX-1's inhibition efficacy (macrophages without aspirin and LPS pre-treatment). Type of data set: cell-based, C57BL/6 mouse. The note with it: for inhibition at 10 µg/mL: 10 μg/ml. The protocol: Regarding the compounds in the above Examples and indomethacin, the inhibition efficacy of COX-2 and COX-1 are being measured by the following two methods.
After cleaning C57BL/6 mouse's abdomen by 70% EtOH, the skin of mouse's abdomen was eliminated cautiously not to harm peritomeum and 5 ml of cold PBS was poured into the abdominal cavity and in certain times later macrophage-bleeding abdominal-liquid was collected by syringe. By adding RPMI-1640 badge containing penicillin(100 unit/mt) and streptomycin([…]) to cell pellet obtained by centrifugation of collected liquid about 5 minutes in 1500 rpm, it was disperesed and also COX-1 existing in the cell was inactivated by treating with 500 μM aspirin. After putting 1 ml cell suspension having cell number of 1×10^6 cells/mu into each 24-well microtiter plates, macrophages were adhered to the bottom of plate by culturing in the condition of 5% CO2/95% O2, at a temperature of 37° C. for 2 hours. Other cells not being adhered to were eliminated by washing two times with PBS. The purity of macrophages obtained through this process was identified by differential counting. After adding RPMI-1640 badge(normally 5×10^5 cell/ml) containing 3% right fetal blood serum to macrophage and treating it with LPS(lipopolysaccharide) to make final concentration as 10 μg/ml, it was cultured in the condition of 5% CO2, at a temperature of 37° C. for 16 hours. After inducing COX-2 by LPS, the cell culture medium was eliminated and macrophages was washed two times with PBS. And 1 ml of RRPI-1640 badge was added to each well again and after treating them with sample with appropriate concentration, they were cultured at a temperature of 37i É for 10 minutes. And then treated them with arachidonic acid to make their final concentration as 10 μM and cultured them additional 10 minutes, all the supernatant liquid of reaction was obtained. The amount of PGE2 produced in the supernatant liquid of reaction was determined by the PGE2 radioimmuno assay. The 100% COX-2's activation is referenced by the difference of the amount of PGE2 produced in the supernatant liquid of reaction between with 10 μM arachidonic acid treatment and without 10 μM arachidonic acid treatment.
2. Evaluation of COX-1's Inhibition Efficacy
Following the same procedure as the above evaluation of COX-2's inhibition efficacy, but there is no pre-treatment of aspirin and LPS in the adhesion of macrophage.

As a reminder, the melting point is the temperature, or range, at which the solid turns liquid. One may read the inhibition as the share of the control response that was lost under treatment.

As for `CS(=O)(=O)c1ccc(-c2oc3ccccc3c(=O)c2-c2cccc3ccccc23)cc1` [Example 13, 2-(4-(methylsulfonyl)phenyl)-3-(1-naphthyl)-4H-1-benzopyran-4-one], the melting point was in the range of 193 to 194 °C.

`CS(=O)(=O)c1ccc(-c2oc3ccccc3c(=O)c2-c2ccc(Cl)cc2Cl)cc1` [Example 5, 3-(2,4-Dichlorophenyl)-2-(4-(methylsulfonyl)phenyl)-4H-1-benzopyran-4-one] returned a melting point of 172 to 175 °C. At COX-2, the inhibition at 0.1 µg/mL was found to be 39%, the inhibition at 1 µg/mL is 90% and the inhibition at 10 µg/mL was found to be 100%.

For the compound `CS(=O)(=O)c1ccc(-c2oc3ccccc3c(=S)c2-c2cccc(Cl)c2Cl)cc1` [Example 38, 3-(2,3-Dichlorophenyl)-2-(4-(methylsulfonyl)phenyl)-4H-1-benzopyran-4-thione], the melting point is 191 to 192 °C. On COX-2, the inhibition at 0.1 µg/mL amounted to 18%, the inhibition at 1 µg/mL was found to be 77% and the inhibition at 10 µg/mL was 96%.

The compound `CS(=O)(=O)c1ccc(-c2oc3ccccc3c(=O)c2-c2cccs2)cc1` [Example 7, 2-(4-(Methylsulfonyl)phenyl)-3-(2-thienyl)-4H-1-benzopyran-4-one] registered a melting point of 165 to 167 °C.

As for `CS(=O)(=O)c1ccc(-c2oc3ccccc3c(=O)c2-c2ccncc2)cc1` [Example 16, 2-(4-(Methylsulfonyl)phenyl)-3-(4-pyridinyl)-4H-1-benzopyran-4-one], the melting point is 204 to 205 °C. Besides, the inhibition at 10 µg/mL at COX-1 was less than 5%. Further, on COX-2, the inhibition at 10 µg/mL came out at 24%.

Take `CS(=O)(=O)c1ccc(-c2oc3ccccc3c(=S)c2-c2ccc(Cl)c(Cl)c2)cc1` [Example 42, 3-(3,4-Dichlorophenyl)-2-(4-(methylsulfonyl)phenyl)-4H-1-benzopyran-4-thione]: the melting point was 168 °C.

In turn, `Cc1ccc(-c2c(-c3ccc(S(C)(=O)=O)cc3)oc3ccccc3c2=S)cc1` [Example 43, 3-(4-Methylphenyl)-2-(4-(methylsulfonyl)phenyl)-4H-1-benzopyran-4-thione] yielded a melting point of 204 to 205 °C.

`CS(=O)(=O)c1ccc(-c2oc3ccccc3c(=S)c2-c2cccc(F)c2)cc1` [Example 46, 3-(3-Fluorophenyl)-2-(4-(methylsulfonyl)phenyl)-4H-1-benzopyran-4-thione] returned a melting point of 212 °C. Further, at COX-2, the inhibition at 0.1 µg/mL is 4%, the inhibition at 1 µg/mL came to 67% and the inhibition at 10 µg/mL is 91%.

In turn, `NS(=O)(=O)c1ccc(-c2oc3ccc(F)cc3c(=O)c2-c2ccc(Cl)cc2)cc1` [Example 50, 2-(4-(Aminosulfonyl)phenyl)-6-fluoro-3-(4-chlorophenyl)-4H-1-benzopyran-4-one] gave a melting point of 215 to 217 °C. Moreover, at COX-2, the inhibition at 0.1 µg/mL was 5%, the inhibition at 1 µg/mL was 80% and the inhibition at 10 µg/mL amounted to 87%.

On to `COc1ccc(-c2c(-c3ccc(S(C)(=O)=O)cc3)oc3ccccc3c2=S)cc1` [Example 44, 3-(4-Methoxyphenyl)-2-(4-(methylsulfonyl)phenyl)-4H-1-benzopyran-4-thione], for which the melting point is 199 °C.

As to `CC(=O)c1ccc(-c2c(-c3ccc(S(C)(=O)=O)cc3)oc3ccccc3c2=O)cc1` [Example 8, 3-(4-Acetylphenyl)-2-(4-(methylsulfonyl)phenyl)-4H-1-benzopyran-4-one], the melting point lay within 223 to 224 °C.

Turning to `Cc1cccc(-c2c(-c3ccc(S(C)(=O)=O)cc3)oc3ccccc3c2=S)c1` [Example 39, 3-(3-Methylphenyl)-2-(4-(methylsulfonyl)phenyl)-4H-1-benzopyran-4-thione], the melting point lay in the range of 201 to 202 °C. Further, at COX-2, the inhibition at 0.1 µg/mL stood at 11%, the inhibition at 1 µg/mL turned out to be 31% and the inhibition at 10 µg/mL worked out at 86%.

`Cc1ccc(-c2c(-c3ccc(S(N)(=O)=O)cc3)oc3ccc(F)cc3c2=O)cc1` [Example 49, 2-(4-(Aminosulfonyl)phenyl)-6-fluoro-3-(4-methylphenyl)-4H-1-benzopyran-4-one]: the melting point is 215 to 217 °C. Moreover, at COX-2, the inhibition at 0.1 µg/mL was found to be 32%, the inhibition at 1 µg/mL turned out to be 76% and the inhibition at 10 µg/mL was found to be 92%.

`CS(=O)(=O)c1ccc(-c2oc3ccccc3c(=S)c2-c2ccccc2F)cc1` [Example 45, 3-(2-Fluorophenyl)-2-(4-(methylsulfonyl)phenyl)-4H-1-benzopyran-4-thione] displayed a melting point of 198 to 200 °C.

As for `CS(=O)(=O)c1ccc(-c2oc3ccccc3c(=O)c2-c2ccccn2)cc1` [Example 33, 2-(4-(Methylsulfonyl)phenyl)-3-(2-pyridinyl)-4H-1-benzopyran-4-one], the inhibition at 10 µg/mL at COX-1 is 17%. Besides, on COX-2, the inhibition at 1 µg/mL is 27% and the inhibition at 10 µg/mL turned out to be 44%.

In the case of `COc1ccc(Cl)c2oc(-c3ccc(S(N)(=O)=O)cc3)c(-c3ccc(F)cc3)c(=O)c12` [Example 65, 2-(4-(Aminosulfonyl)phenyl)-8-chloro-3-(4-fluorophenyl)-5-methoxy-4H-1-benzopyran-4-one], the inhibition at 1 µg/mL is 24% on COX-1 (1 μg/ml) and 67% at COX-2. Besides, the figures for the inhibition at 10 µg/mL on COX-1 and at COX-2 were 73% and 93%, respectively.
